Literature values as cited in US20160101176A1, “POLYMERIC HYDROGEL PHARMACEUTICAL COMPOSITIONS WITH ON-DEMAND RELEASE OF A DRUG IN RESPONSE TO A ELECTRICAL STIMULUS” (UNIVERSITY OF THE WITWATERSRAND, JOHANNESBURG, priority 2013, published 2016).

Columns and labels:
plasma proteins = conditions: Raveendran et al., 1992
[1] = rat's cardio-vascular system; Elahi et al., 2009

## COc1ccc2c(c1)c(CC(=O)O)c(C)n2C(=O)c1ccc(Cl)cc1 [indomethacin]
Plasma proteins
  protein binding: highly protein bound
[1]
  t1/2: 7 to 10 h
